BindingDB's records for patent US9273014 (Bristol-Myers Squibb Co., 2016)

Biological target: Neurogenic locus notch homolog protein 3 (Human, UniProt Q9UM47)
Assay: Biological Assay

Chain of Neurogenic locus notch homolog protein 3 (Q9UM47 whole entry): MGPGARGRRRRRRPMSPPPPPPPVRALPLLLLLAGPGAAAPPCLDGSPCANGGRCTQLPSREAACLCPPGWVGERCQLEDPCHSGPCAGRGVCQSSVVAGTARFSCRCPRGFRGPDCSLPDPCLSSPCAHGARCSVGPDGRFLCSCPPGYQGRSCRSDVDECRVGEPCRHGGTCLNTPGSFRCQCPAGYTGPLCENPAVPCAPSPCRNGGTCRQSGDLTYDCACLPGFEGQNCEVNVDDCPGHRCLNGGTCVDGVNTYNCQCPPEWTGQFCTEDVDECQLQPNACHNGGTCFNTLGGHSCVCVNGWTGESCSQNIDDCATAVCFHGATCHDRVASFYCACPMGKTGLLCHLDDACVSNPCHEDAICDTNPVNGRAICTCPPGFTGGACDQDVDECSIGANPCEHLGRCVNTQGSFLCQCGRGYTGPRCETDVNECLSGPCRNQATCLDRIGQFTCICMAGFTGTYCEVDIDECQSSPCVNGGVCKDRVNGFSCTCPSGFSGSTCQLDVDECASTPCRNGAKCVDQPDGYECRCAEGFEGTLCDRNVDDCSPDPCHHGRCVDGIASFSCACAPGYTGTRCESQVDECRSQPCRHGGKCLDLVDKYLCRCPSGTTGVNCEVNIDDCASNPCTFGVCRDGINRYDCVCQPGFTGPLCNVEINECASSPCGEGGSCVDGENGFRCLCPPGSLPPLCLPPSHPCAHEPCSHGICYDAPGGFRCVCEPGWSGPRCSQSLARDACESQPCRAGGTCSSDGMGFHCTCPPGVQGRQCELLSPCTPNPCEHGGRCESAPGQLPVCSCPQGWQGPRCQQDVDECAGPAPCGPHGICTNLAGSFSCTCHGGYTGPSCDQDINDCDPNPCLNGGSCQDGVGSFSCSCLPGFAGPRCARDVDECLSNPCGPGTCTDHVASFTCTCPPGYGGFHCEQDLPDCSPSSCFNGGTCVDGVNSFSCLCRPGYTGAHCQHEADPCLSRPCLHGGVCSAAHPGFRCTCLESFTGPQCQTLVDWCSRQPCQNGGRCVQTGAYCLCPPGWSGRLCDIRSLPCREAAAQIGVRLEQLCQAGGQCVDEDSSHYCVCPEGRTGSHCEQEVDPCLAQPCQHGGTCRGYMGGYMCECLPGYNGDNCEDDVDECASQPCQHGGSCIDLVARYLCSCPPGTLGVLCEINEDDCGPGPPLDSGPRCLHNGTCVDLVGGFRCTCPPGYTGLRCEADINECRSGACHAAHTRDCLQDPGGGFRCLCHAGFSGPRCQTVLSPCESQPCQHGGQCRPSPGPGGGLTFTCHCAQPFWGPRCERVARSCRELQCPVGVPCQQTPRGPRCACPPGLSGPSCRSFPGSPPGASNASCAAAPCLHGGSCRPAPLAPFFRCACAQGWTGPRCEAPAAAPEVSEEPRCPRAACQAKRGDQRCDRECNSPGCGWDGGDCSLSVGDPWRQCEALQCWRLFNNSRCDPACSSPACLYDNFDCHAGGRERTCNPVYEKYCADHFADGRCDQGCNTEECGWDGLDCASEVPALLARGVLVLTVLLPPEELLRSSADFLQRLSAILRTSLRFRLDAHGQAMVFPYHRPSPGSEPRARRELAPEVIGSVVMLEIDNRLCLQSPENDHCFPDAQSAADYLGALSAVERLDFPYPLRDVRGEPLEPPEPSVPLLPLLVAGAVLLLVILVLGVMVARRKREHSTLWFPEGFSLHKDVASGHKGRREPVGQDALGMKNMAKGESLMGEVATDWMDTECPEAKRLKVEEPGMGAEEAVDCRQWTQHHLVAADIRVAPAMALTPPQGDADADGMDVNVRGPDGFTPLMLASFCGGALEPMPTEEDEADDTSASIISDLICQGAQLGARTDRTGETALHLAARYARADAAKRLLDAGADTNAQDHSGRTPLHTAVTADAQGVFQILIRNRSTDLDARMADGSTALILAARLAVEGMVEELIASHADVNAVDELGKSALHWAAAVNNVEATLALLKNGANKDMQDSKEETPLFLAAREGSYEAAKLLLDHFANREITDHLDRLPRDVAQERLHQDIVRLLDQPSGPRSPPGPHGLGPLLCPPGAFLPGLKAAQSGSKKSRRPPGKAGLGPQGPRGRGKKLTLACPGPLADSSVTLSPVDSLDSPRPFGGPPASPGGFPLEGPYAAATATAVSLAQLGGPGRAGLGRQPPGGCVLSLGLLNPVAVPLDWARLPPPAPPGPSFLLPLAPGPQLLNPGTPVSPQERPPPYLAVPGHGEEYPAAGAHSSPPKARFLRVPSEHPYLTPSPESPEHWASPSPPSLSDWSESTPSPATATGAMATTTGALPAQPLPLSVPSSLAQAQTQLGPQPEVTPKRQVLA

Row | SMILES | IC50
1 | CC(C)c1cccc2c1NC(=O)[C@@H](NC(=O)[C@H](CCC(F)(F)F)[C@H](CCC(F)(F)F)C(N)=O)N=C2c1ccccc1 [US9273014, 13] | 4.9 nM
2 | COc1cccc2c1NC(=O)[C@@H](NC(=O)[C@H](CCC(F)(F)F)[C@H](CCC(F)(F)F)C(N)=O)N=C2c1cccc(C)c1 [US9273014, 29] | 5.7 nM
